# Key:
# [1] = Stability of P-RFRTs in PBS and at pH 2; type: physicochemical; settings: same concentration
# [2] = in tetrahydrofuran; cited from earlier work
substance,measurement,setting,value
zinc hexadecafluoro-phthalocyanine [ZnF16Pc],Stability in PBS,[1],quickly precipitated out due to its poor solubility
same,ΦΔ,[2],0.85
